Reference: PubChem BioAssay AID1996
In brackets after ≈: the same amount, converted by molar mass.

Details: buffer; pH 7.4; 200.0 µM

With `CCOc1ccc(S(=O)(=O)N2CCN(C(=O)c3ccc(C)c(S(=O)(=O)N4CCOCC4)c3)CC2)cc1` as the compound, how does the solubility kinetic read?
The solubility kinetic was 19.3 µg/mL (≈ 35.9 µM).

For `Cc1ccnc(N2CCC(C(=O)Nc3ccc4c(c3)OCCO4)CC2)n1`, which solubility kinetic is on record?
Its solubility kinetic is 13.6 µg/mL (≈ 38.4 µM).

Which solubility kinetic does the source give for `O=C(c1cc([N+](=O)[O-])cc([N+](=O)[O-])c1)N1CCN(C(=O)c2ccco2)CC1` here?
Its solubility kinetic is 54 µg/mL (≈ 144 µM).

For `C#CCOC(=O)Nc1cc(C)n(-c2ccccc2)n1`, which solubility kinetic is on record?
The solubility kinetic was greater than 38.3 µg/mL.

For `CCC(C)[C@H](NC(=O)N1CCCCCC1)C(=O)O` (some centres undefined), which solubility kinetic is on record?
Its solubility kinetic is greater than 38.5 µg/mL.

With `C/C(=N/NC(=O)CNC(=O)c1cccs1)c1ccco1` as the compound, how does the solubility kinetic read?
The solubility kinetic was greater than 43.7 µg/mL.

For `Cc1onc(-c2ccccc2Cl)c1C(=O)N1CCCCC1C` (centres undefined), which solubility kinetic is on record?
The solubility kinetic was 45.8 µg/mL (≈ 144 µM).

Which solubility kinetic does the source give for `Cc1ccc(NC2=NC(c3ccc(F)cc3)n3c(nc(C)cc3=O)N2)cc1` (centres undefined) here?
Its solubility kinetic is 5 µg/mL (≈ 13.8 µM).

Which solubility kinetic does the source give for `COc1ccccc1C1CCN(C(=O)C2CCCCC2)CC1` here?
The solubility kinetic was 38.6 µg/mL (≈ 128 µM).

For `Cc1ccc(CNC(=O)CNC(=O)c2ccc(C(C)(C)C)cc2)n1C`, which solubility kinetic is on record?
The solubility kinetic was greater than 51.2 µg/mL.

Which solubility kinetic does the source give for `O=S(=O)(Nc1cccc(S(=O)(=O)N2CCCCCC2)c1)c1ccc(F)cc1F` here?
Its solubility kinetic is greater than 64.6 µg/mL.

Which solubility kinetic does the source give for `Cc1cccc(NC(=O)c2ccc3nccnc3c2)n1` here?
The solubility kinetic was greater than 39.6 µg/mL.

Which solubility kinetic does the source give for `CC(CCc1ccccc1)NC(=O)CCNC(=O)c1ccccc1Cl` (centres undefined) here?
Its solubility kinetic is 12.3 µg/mL (≈ 34.3 µM).

Which solubility kinetic does the source give for `NS(=O)(=O)c1cccc(NC(=O)CSc2nnc3n2CCCCC3)c1` here?
The solubility kinetic was greater than 57.2 µg/mL.

Which solubility kinetic does the source give for `Cc1cccc(N2CCN(C(=O)Cc3ccccc3[N+](=O)[O-])CC2)c1C` here?
Its solubility kinetic is 3.3 µg/mL (≈ 9.34 µM).

With `Nc1c(C(=O)O)sc2nc(-c3ccccc3)cc(-c3ccc(F)cc3)c12` as the compound, how does the solubility kinetic read?
The solubility kinetic was 51.3 µg/mL (≈ 141 µM).

Which solubility kinetic does the source give for `Cc1ccc(S(=O)(=O)Nc2ccc(Oc3cccnc3)nc2)cc1` here?
The solubility kinetic was 16.8 µg/mL (≈ 49.2 µM).

With `c1ccc(CN2CCN(Cc3c[nH]c4ccccc34)CC2)cc1` as the compound, how does the solubility kinetic read?
The solubility kinetic was greater than 45.8 µg/mL.

With `Cc1ccc(C(=O)COC(=O)C(C)N2C(=O)C3C4C=CC(C4)C3C2=O)cc1C` (centres undefined) as the compound, how does the solubility kinetic read?
The solubility kinetic was 55.5 µg/mL (≈ 146 µM).

With `CSc1nc(N2CCOCC2)c2c(c1C#N)CC(C(C)C)OC2` (centres undefined) as the compound, how does the solubility kinetic read?
The solubility kinetic was less than 0.2 µg/mL.

For `Cc1cccn2c(=O)c(C(=O)NC3CCCCC3)c(O)nc12`, which solubility kinetic is on record?
Its solubility kinetic is 5.4 µg/mL (≈ 17.9 µM).

For `Cc1ccc(NC(=O)CCN2CCC(C)CC2)cc1.Cl`, which solubility kinetic is on record?
Its solubility kinetic is greater than 44.5 µg/mL.

For `O=C(COC(=O)c1ccc(Cl)nc1)Nc1ccc2c(c1)CCC2`, which solubility kinetic is on record?
The solubility kinetic was 5.3 µg/mL (≈ 16 µM).

Which solubility kinetic does the source give for `CC1C2(C)OCC(C#N)(C(=N)O2)C1(C#N)C#N` (centres undefined) here?
The solubility kinetic was greater than 34.5 µg/mL.

With `C=CCn1c(Oc2cccc(C)c2)nc2c1c(=O)n(C)c(=O)n2C` as the compound, how does the solubility kinetic read?
The solubility kinetic was greater than 49 µg/mL.

Which solubility kinetic does the source give for `CCNc1nc(-c2ccc(OC(F)F)cc2)c(C)s1` here?
The solubility kinetic was 20.9 µg/mL (≈ 73.5 µM).

Which solubility kinetic does the source give for `S=c1[nH]nc(C2(c3ccccc3)CCCC2)o1` here?
Its solubility kinetic is greater than 36.9 µg/mL.

For `Cc1cccc2nc3ccccc3cc12`, which solubility kinetic is on record?
Its solubility kinetic is 6.8 µg/mL (≈ 35.2 µM).

Which solubility kinetic does the source give for `CCOC(=O)N1CCN(c2ccncc2S(=O)(=O)N2CCCCC2)CC1` here?
Its solubility kinetic is greater than 57.4 µg/mL.

For `Nc1ccc(Cl)c(S(=O)(=O)Nc2ccccc2Cl)c1`, which solubility kinetic is on record?
The solubility kinetic was greater than 47.6 µg/mL.

For `COC(=O)c1ccc2c(=O)n(-c3ccc(OC)cc3)c(=S)[nH]c2c1`, which solubility kinetic is on record?
The solubility kinetic was 1.5 µg/mL (≈ 4.38 µM).

For `CC(=O)N(CCc1cccc(C)c1)Cc1cc2ccc(C)cc2[nH]c1=O`, which solubility kinetic is on record?
The solubility kinetic was 5.1 µg/mL (≈ 14.6 µM).

With `O=C(Cn1c(CO)nc2ccccc21)NCc1ccc2c(c1)OCO2` as the compound, how does the solubility kinetic read?
The solubility kinetic was greater than 50.9 µg/mL.

With `O=C(c1ccccc1)N1CCN(S(=O)(=O)N2CCOCC2)CC1` as the compound, how does the solubility kinetic read?
Its solubility kinetic is 46 µg/mL (≈ 136 µM).

With `O=C(/C=C/NCc1cccnc1)c1ccc(Br)cc1` as the compound, how does the solubility kinetic read?
The solubility kinetic was greater than 47.6 µg/mL.

For `O=C(O)/C=C\C(=O)Nc1ccc(F)c(F)c1F`, which solubility kinetic is on record?
The solubility kinetic was 34.3 µg/mL (≈ 140 µM).

Which solubility kinetic does the source give for `N#Cc1ccc(OCC(O)CS(=O)(=O)c2ccccc2)cc1` (centres undefined) here?
Its solubility kinetic is 46.6 µg/mL (≈ 147 µM).

For `CCOC(=O)C1CCCN(C(=S)NC2CCCCC2)C1` (centres undefined), which solubility kinetic is on record?
Its solubility kinetic is greater than 44.8 µg/mL.

For `O=C(Nc1cccc(Cl)c1)Nc1ccccc1C(=O)O`, which solubility kinetic is on record?
The solubility kinetic was greater than 43.6 µg/mL.

Which solubility kinetic does the source give for `O=C(NC1CC1)c1cc2cc(Br)ccc2s1` here?
The solubility kinetic was less than 0.6 µg/mL.

With `Cc1nc([N+](=O)[O-])c(C(=O)OCc2ccccc2)n1C` as the compound, how does the solubility kinetic read?
Its solubility kinetic is 37.6 µg/mL (≈ 137 µM).

Which solubility kinetic does the source give for `CCC1CCCCN1CC(=O)c1c(C)[nH]c2cc(C)ccc12` (centres undefined) here?
The solubility kinetic was 33 µg/mL (≈ 111 µM).

Which solubility kinetic does the source give for `O=C(c1cc(Br)c(Br)s1)N1CCc2ccccc2C1` here?
The solubility kinetic was 7 µg/mL (≈ 17.5 µM).

For `COc1ccc(NC(=O)C2C3CCC(O3)C2C(=O)O)c(OC)c1` (centres undefined), which solubility kinetic is on record?
Its solubility kinetic is greater than 48.2 µg/mL.

Which solubility kinetic does the source give for `Cc1ccc(-n2c(C)nc3cc(Cl)ccc3c2=O)nc1` here?
Its solubility kinetic is greater than 42.9 µg/mL.

With `C/C(=N/NC(=O)CNC(=O)c1ccncc1)c1ccco1` as the compound, how does the solubility kinetic read?
The solubility kinetic was greater than 42.9 µg/mL.

For `COCCNC(=O)C(=O)Nc1cc2c3c(c1)C(C)C(=O)N3CCC2` (centres undefined), which solubility kinetic is on record?
The solubility kinetic was 48.7 µg/mL (≈ 147 µM).

Which solubility kinetic does the source give for `CN(C(=O)CSc1ccc2c(c1)OCCO2)c1ccccc1` here?
Its solubility kinetic is greater than 47.3 µg/mL.

For `O=C(COC(=O)c1ccc(Br)o1)Nc1ccc2c(c1)OCCO2`, which solubility kinetic is on record?
The solubility kinetic was 5.1 µg/mL (≈ 13.3 µM).

With `COc1ccc(CCNS(=O)(=O)c2cn(C)nc2C)cc1` as the compound, how does the solubility kinetic read?
The solubility kinetic was greater than 46.4 µg/mL.

Which solubility kinetic does the source give for `COc1cccc(NC(=O)CN(C)CC(=O)NCc2ccc(F)cc2)c1` here?
The solubility kinetic was greater than 53.9 µg/mL.

With `Cc1ccc(CNCC(O)(c2ccccc2)c2ccccc2)cc1` as the compound, how does the solubility kinetic read?
The solubility kinetic was 6 µg/mL (≈ 18.9 µM).

Which solubility kinetic does the source give for `Cc1ccc(C(=O)NCC(=O)N2CCCCCC2)cc1` here?
The solubility kinetic was greater than 41.2 µg/mL.

Which solubility kinetic does the source give for `CCOC(=O)N[C@H](Cc1c[nH]c2ccccc12)C(=O)NC1CC1` here?
The solubility kinetic was greater than 47.3 µg/mL.

Which solubility kinetic does the source give for `Cc1ccc(NS(=O)(=O)c2cccc([N+](=O)[O-])c2)nc1` here?
The solubility kinetic was 14.6 µg/mL (≈ 49.8 µM).

Which solubility kinetic does the source give for `COc1ccc2c(CC(=O)Nc3ccccc3OC)coc2c1` here?
The solubility kinetic was 31.4 µg/mL (≈ 101 µM).

For `Cn1cc(C=C2C(=O)NC(=O)NC2=O)c2ccccc21`, which solubility kinetic is on record?
The solubility kinetic was 2.6 µg/mL (≈ 9.66 µM).

With `COc1ccc(NS(=O)(=O)c2cc(NC(=O)c3ccc(S(=O)(=O)N(C)C)cc3)ccc2N2CCOCC2)cc1` as the compound, how does the solubility kinetic read?
The solubility kinetic was 3.2 µg/mL (≈ 5.57 µM).

For `Cc1cccc(C(=O)NCCc2ccccc2)c1`, which solubility kinetic is on record?
Its solubility kinetic is greater than 35.9 µg/mL.
